How the values were obtained:
[1] = biological target: T1, HBV genotype D RNAseH (HRHPL) (Hepatitis B virus genotype D subtype ayw, UniProt P03156, INS679M); assay: Oligonucleotide-directed RNAseH cleavage assay, HBV genotype D; format: biochemical; settings: for Residual activity at 10 uM, Genotype D: ± standard deviation, 3 to 7 replicates; for Activity vs. HBV Biochemical vs. gtD: class by concentration giving inhibition (10, 20, 60 μM)
T1 construct: HRHPL contains HBV genotype D (Genbank V01460) polymerase residues 684-845; made in house; host or cells: E. coli BL21 codon+
Experimental: (§1) For the oligonucleotide-directed RNAseH cleavage assay (Gong et al., 2001), 6 μl protein extract (typical protein concentration 2.8 mg/ml) was mixed with 0.5 μg internally ^32P-labeled DRF+ RNA (nucleotides 2401-2605 of the duck HBV genome plus 60 nucleotides of flanking sequences from pBluescript) and 3 μg oligonucleotide D2507- or its corresponding negative control D2526+ on ice in 20 μl under the conditions in Table 1. Some reactions in FIG. 5 employed oligonucleotide D2543M-Sal or its D2453+ negative control as indicated. The reactions were incubated at 42° C. for 90 min. and terminated by addition of Laemmli protein loading buffer and boiling. The samples were resolved by 12% SDS-PAGE, the gels were stained with Coomassie blue to monitor protein loading, and labeled RNA was detected by autoradiography. Candidate inhibitors were dissolved in DMSO and added at the indicated concentrations during assembly of the reactions. Control reactions lacking the compounds contained DMSO as a vehicle control. The RNAseH autoradiograms were scanned and quantified with ImageJ.
(§2) Oligonucleotide-directed RNAseH cleavage assays (Gong et al., 2001) were performed as described (Tavis et al., 2013). Briefly, HBV RNAseH extracts were mixed with a 264 nt-long internally ^32P-labeled RNA plus an excess of a complementary DNA oligonucleotide or its inverse-complement as a negative control in a final concentration of 65 mM Tris pH 8.0, 190 mM NaCl, 5 mM MgCl2, 5 mM dTT, 0.05% NP40, and 6% glycerol. βTJ was dissolved in DMSO and added at the indicated concentrations; the final concentration of DMSO in all reactions was 1%. The reactions were incubated at 42° C. for 90 min. and terminated by addition of Laemmli protein electrophoresis buffer. The samples were resolved by SDS-PAGE, labeled RNA was detected by autoradiography, the autoradiograms were scanned, and the RNA cleavage products were quantified with ImageJ (National Institutes of Health). IC50 values were calculated by non-linear regression using GraphPad Prism (GraphPad Software, Inc.).

HBV genotype H RNAseH = assay: Oligonucleotide-directed RNAseH cleavage assay, HBV genotype H; format: biochemical, Hepatitis B virus; settings: 10 μM; for Residual activity at 10 uM, Genotype H: ± standard deviation, 3 to 7 replicates
Experimental: as §1, with “ImageJ. The oligonucleotides were: D2526+([…]; SEQ ID NO:8), D2507-([…]; SEQ ID NO:9), D2453+([…]; SEQ ID NO:10), and D2543M-Sal ([…]; SEQ ID NO:11).” for “ImageJ.”
as §2

[2] = biological target: T2, chimeric HBV:HIV RNAseH HHC1 (Hepatitis B virus genotype D subtype ayw, UniProt P03156, DELINS787-795[…]/INS679M); assay: Oligonucleotide-directed RNAseH cleavage assay, chimeric HHC1; format: biochemical; settings: 10 μM; ± standard deviation, 3 to 7 replicates
T2 construct: HHC1 is an HRHPL derivative; made in house; host or cells: E. coli BL21 codon+
From the text: pCMV-HBV-LE-(CMV-HBV) is an HBV over-length genomic expression vector containing 1.2 copies of the HBV(adw2) genome (Genbank X02763.1) downstream of the CMV promoter cloned into pBS (Promega). Surface protein expression from this vector is ablated by mutating the preS and S open reading frames. pCMV-HBV(genotype D) is an analogous HBV genomic expression construct and was a gift from Dr. Shuping Tong (Brown University). For bacterial expression, codon-optimized cDNA sequences for HRHPL (genotypes A, B, C, D, and H), and noncodon-optimized sequences for HHC1 and HHC2 were cloned by gene synthesis (Genscript) between the NcoI and EcoRI sites into pTrcHis2B (Invitrogen) with a C-terminal hexahistidine tag. HRHPL contains HBV genotype D (Genbank V01460) polymerase residues 684-845. HHC1 is an HRHPL derivative in which HBV polymerase residues 800-808 were replaced with HIV residues corresponding to the RNAseH helix D ([…]; SEQ ID NO:6). HHC2 is an HRHPL derivative in which HBV polymerase residues 800-845 were replaced with HIV residues corresponding to the RNAseH helix D to the C-terminus ([…]; SEQ ID NO:7). The human RNAseH1 gene (NP_002927.2) was cloned with an N-terminal hexahistidine-tag between the BamHI and XhoI sites of pRsetB (Invitrogen) by gene synthesis.
as §1, with “ImageJ. The oligonucleotides were: D2526+([…]; SEQ ID NO:8), D2507-([…]; SEQ ID NO:9), D2453+([…]; SEQ ID NO:10), and D2543M-Sal ([…]; SEQ ID NO:11).” for “ImageJ.”

HBV = HBV genomic replication assays (Table 2); format: cell-based, Hepatitis B virus; settings: class by active concentration
Experimental: Huh7 cells were maintained in Dulbecco's modified Eagle's medium with 10% fetal bovine serum at 37° C. in 5% CO2. Cells were seeded into 60 mm dishes and transfected at 70% confluency with 2.6 μg of plasmids using TransIT-LT1 (Mirus, Inc.). Test compounds were added the morning following transfection at 10 or 50 μM, and fresh medium containing the compounds was provided every 1-2 days. Four or five days post-transfection HBV cores were isolated by lysis of the cells in 10 mM Tris pH 7.5, 1 mM EDTA, 0.25% NP40, 50 mM NaCl, and 8% sucrose followed by sedimentation through a 30% sucrose cushion as described (Travis, et al., 1998). Viral DNAs were isolated from cytoplasmic core particle preparations by proteinase K digestion followed by phenol/chloroform extraction as described (Gong et al., 2001). Duplicate aliquots of the nucleic acids were treated with 2 U E. coli DNAse-free RNAseH (Invitrogen) at 37° C. for 30 min. or were mock treated. The nucleic acid samples were resolved by electrophoresis on 1.2% agarose gels and detected by Southern blotting with ^32P-labeled HBV DNA as a probe. […]

human RNAseH1 = biological target: T3, human RNAseH1 (Homo sapiens, UniProt O60930); assay: Oligonucleotide-directed RNAseH assay, recombinant human RNAseH1; format: biochemical; settings: for Activity vs. human RNAseH1: class by concentration giving inhibition (10, 20, 60 μM)
T3 construct: hexahistidine (N); made in house; host or cells: E. coli BL21 codon+
T3 sequence (O60930 1-286): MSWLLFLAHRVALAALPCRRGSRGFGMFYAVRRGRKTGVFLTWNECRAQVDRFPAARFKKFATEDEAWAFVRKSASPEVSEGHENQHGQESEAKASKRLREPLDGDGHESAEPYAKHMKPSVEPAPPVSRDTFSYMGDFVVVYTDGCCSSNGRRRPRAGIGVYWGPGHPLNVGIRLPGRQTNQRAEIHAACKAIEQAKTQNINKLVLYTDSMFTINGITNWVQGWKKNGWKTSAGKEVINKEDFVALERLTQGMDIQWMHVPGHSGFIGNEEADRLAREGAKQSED
Experimental: as §1, with “ImageJ. The oligonucleotides were: D2526+([…]; SEQ ID NO:8), D2507-([…]; SEQ ID NO:9), D2453+([…]; SEQ ID NO:10), and D2543M-Sal ([…]; SEQ ID NO:11).” for “ImageJ.”
Therefore, the inventors cloned the human RNAseH1 with an N-terminal hexahistidine tag, expressed it in E. coli, and purified the protein by nickel affinity chromatography. […] This enzyme was active in the oligonucleotide-directed and fluorescent RNAseH assays (FIG. 10B and data not shown). To determine how inhibition of human RNAseH1 compared to inhibition of the HBV RNAseH, the inventor titrated the RNAaseH1 enzyme to yield similar levels of activity as the HBV enzyme, and then the inventor directly compared the ability of compounds #8-12 to inhibit human RNAseH1 and HRHPL at 10 μM. […] Therefore, it is possible to inhibit the HBV RNAseH without inhibiting human RNAseH1.
as §2

T2 sequence (P03156 680-786, added parts left off, stated change not applied): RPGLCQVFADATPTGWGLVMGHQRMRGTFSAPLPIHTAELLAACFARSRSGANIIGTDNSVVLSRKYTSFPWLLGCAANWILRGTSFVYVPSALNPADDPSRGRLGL
T1 sequence (P03156 680-832, added parts left off, stated change not applied): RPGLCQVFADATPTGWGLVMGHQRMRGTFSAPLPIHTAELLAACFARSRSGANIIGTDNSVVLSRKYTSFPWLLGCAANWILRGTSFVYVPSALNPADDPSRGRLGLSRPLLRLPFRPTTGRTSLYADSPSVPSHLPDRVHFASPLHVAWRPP

| SMILES | Residual activity at 10 uM, Genotype D [1] [Percent DMSO control] | Activity vs. HBV Biochemical vs. gtD [1] | Residual activity at 10 uM, Genotype H (HBV genotype H RNAseH) [Percent DMSO control] | Residual activity at 10 uM, HHC1 [2] [Percent DMSO control] | Activity vs. HBV Genomic Replication (HBV) | Activity vs. human RNAseH1 (human RNAseH1) | Inhibition of human RNAseH1 (human RNAseH1; 10 μM, compared directly with HRHPL) | Inhibition of HBV genotype H RNAseH (HBV genotype H RNAseH; below threshold of irrelevant controls) |
| --- | --- | --- | --- | --- | --- | --- | --- | --- |
| CC(Cc1ccc(O)c(O)c1)C(C)Cc1ccc(O)c(O)c1 (centres unmarked) [Compound 2] | 54 ± 18 | − (− no inhibition at 60 μM) | 67 ± 20 | 35 ± 6 | − (− no activity at 60 μM) | – | – | – |
| NC(=O)c1c(N)sc2c1CCCCC2 [Compound 3] | 43 ± 14 | − (− no inhibition at 60 μM) | 68 ± 14 | 60 ± 19 | − (− no activity at 60 μM) | – | – | – |
| COC(=O)Oc1nsnc1N1CCOCC1 [Compound 4] | 35 ± 6 | + (+ inhibition at 60 μM) | 68 ± 18 | 37 ± 5 | − (− no activity at 60 μM) | – | – | – |
| O=c1c(O)c(-c2ccc(O)c(O)c2)oc2cc(O)c(O)c(O)c12 [Compound 7] | 45 ± 19 | − (− no inhibition at 60 μM) | 68 ± 24 | 56 ± 13 | − (− no activity at 60 μM) | +++ (+++ inhibition at 10 μM) | – | – |
| O=c1c(O)c(-c2cc(O)c(O)c(O)c2)oc2cc(O)cc(O)c12 [Compound 9] | 33 ± 10 | ++ (++ inhibition at 20 μM) | 66 ± 23 | 58 ± 15 | − (− no activity at 60 μM) | ++ (++ inhibition at 20 μM) | inhibited it weakly | – |
| COc1ccc2ccccc2c1C=NNC(=O)c1ccc(O)c(O)c1 [Compound 13] | 52 ± 12 | − (− no inhibition at 60 μM) | 42 ± 26 | 65 ± 14 | − (− no activity at 60 μM) | – | – | – |
| O=C(O)c1ccc(-c2cccc(C=NNC(=O)c3cc(O)c(O)c(O)c3)c2)cc1 [Compound 15] | 47 ± 4 | − (− no inhibition at 60 μM) | 37 ± 23 | 68 ± 6 | − (− no activity at 60 μM) | – | – | – |
| Cc1sc2nc(-c3ccc([N+](=O)[O-])cc3)[nH]c(=O)c2c1C [Compound 38] | 24 ± 1 | +++ (+++ inhibition at 10 μM) | 38 ± 25 | 32 ± 4 | − (− no activity at 60 μM) | – | – | – |
| O=c1cc2oc3cc(O)c(O)cc3c(-c3ccccn3)c-2cc1O [Compound 39] | 21 ± 2 | – | 26 ± 0 | 60 ± 24 | – | – | – | inhibited |

— patent US10329542B2, “HBV RNAse H purification and enzyme inhibitors” (Saint Louis University, priority 2012, dated 2019)
